Measured values as given in US10209240B2, “Predicting human developmental toxicity of pharmaceuticals using human stem-like cells and metabolomic ratios” (STEMINA BIOMARKER DISCOVERY, INC., priority 2012, dated 2019).
Read-outs that look alike come from different tables or passages of the source. Marks after values point to notes of the source that are not given here.

How the values were obtained:
WA09 hES cells [1] = assay: Phase 2 targeted biomarker assay, ornithine/cystine ratio, 9-point dose response
Excerpt: Undifferentiated hES Cell Line Maintenance (Phases 1 and 2). WA09 hES cells were obtained from the WiCell Research Institute (Madison, Wis.) and were maintained in feeder free conditions using mTeSR1 media (StemCell Technologies, Inc., Vancouver, BC, Canada) on hESC-qualified Matrigel (BD Biosciences, San Jose, Calif.) coated 6-well plates. To maintain the undifferentiated stem cell population, differentiated colonies were removed daily through aspiration and media was replaced. Additionally, the hES cells were only used in experiments up to passage 40 and were karyotyped approximately every 10 passages to minimize and monitor the potential for genetic instability. hES cells were passaged at 90-95% confluency (approximately every 7 days) using Versene (Life Technologies, Grand Island, N.Y.). Cell cultures were maintained at 37° C. under 5% CO2.
96-well hES Cell Plating (Phases 1 and 2). All experimental treatments were carried out in 96-well plates. To minimize plating variability and increase reproducibility, hES cells were plated as a single cell suspension and maintained in an undifferentiated state during compound exposure. Prior to plating in the 96-well plates, hES cells were removed from a 6-well plate using TrypLE (Life Technologies). The cells were washed with DMEM/F12 (Life Technologies) and resuspended in mTeSR1 containing 10 μM Y27632 Rho-associated kinase (ROCK) inhibitor (Merck KGaA/Calbiochem, Darmstadt, Germany). The ROCK inhibitor is added to the plating media to increase plating efficiency by decreasing dissociation-induced apoptosis. The inner 60 wells of hESC-qualified Matrigel coated 96-well plates were seeded at a density of 100,000 cells per well. The outer wells of the plate contained an equal volume media to minimize differences in humidity across the plate. Compound exposure began 24 hours after plating.
(§1) Phase 2 hES Cell Compound Exposure. […] The standard compound exposure levels used for most compounds were nine, 3-fold dilutions ranging from 0.04 μM-300 μM (FIG. 1B). […] The stock solution was diluted 1:1000 in mTeSR1 media and subsequent dilutions were performed in mTeSR1 containing 0.1% DMSO such that the final concentration of DMSO was 0.1% in all treatments. hES cells were treated for 72 hours and spent media from the last 24-hour treatment period was collected and added to acetonitrile containing ^13C6 labeled arginine (Cambridge Isotope Laboratories, Andover, Md.) as described under Phase 1. Spent media samples were stored at −80° C. until prepared for LC-HRMS analysis. Cell viability was assessed using the CellTiter-Fluor Cell Viability Assay. A quality control step was included with criteria that the CV of the measured viability RFU of the DMSO control cells could not exceed 10% for a plate to undergo LC-HRMS analysis. A dose response curve was fit to the reference treatment (0.1% DMSO treated control cells) normalized data (Viability RFUTrt X/Viability RFUDMSO) using a four-parameter log-logistic model with the R package “drc” (Ritz and Streibig, 2005, J Statistical Software; 12:1-22).
Sample Preparation (Phases 1 and 2). High molecular weight constituents (>10 KDa) of the spent media samples were removed using a Millipore Multiscreen Ultracel-10 filter plate (EMD Millipore, Billerica, Mass.). Prior to sample filtration, the filter plate was washed with 0.1% NaOH to remove a known contaminant polymer. The plate was then rinsed twice with HPLC-grade water to remove residual polymers and NaOH. Spent media samples were added to the washed filter plate. In Phase 1, samples were spiked with ^13C6 labeled arginine. Samples were centrifuged at 2,000×g at 4° C. for 200 minutes. The filtrate was collected and concentrated overnight in a Savant High Capacity Speedvac Plus Concentrator.

WA09 hES cells [2] = system: WA09 hES cells
Description: Phase I hES Cell Compound Exposure. hES cells were treated with a test compound at a single concentration equivalent to the compound's published therapeutic Cmax. […] This was done to ensure that enough cells were present at the time of sample collection to provide a signal for LC-HRMS analysis. For test compound exposure, all compound stock solutions, with the exception of valproic acid, were made with DMSO (Sigma-Aldrich). […] Each 96-well plate included media controls with and without test compound, 0.1% DMSO solvent control cells and cells exposed to a single concentration of eight different test compounds (FIG. 1A). Media controls were included on each plate to assess the impact of test compound on the sample matrix. hES cells were exposed to the test compound for 72 hours, with media and test compound replacement every 24 hours. Cells were monitored throughout the treatment period to ensure that no differentiation was occurring. After 72 hours of treatment, the spent media from the final 24-hour treatment period was collected and added to acetonitrile (Sigma-Aldrich, final acetonitrile concentration 40%), to halt metabolic processes and precipitate proteins from solution. Individual wells from each 96-well plate were collected and analyzed as separate samples. These samples were then stored at −80° C. until prepared for LC-HRMS analysis. Cell viability was assessed using the CellTiter-Fluor Cell Viability Assay as per the manufacturer's instructions (Promega, Madison, Wis.). Quality control parameters were set such that if the coefficient of variation (CV) for the viability relative fluorescent units (RFU) of the 6 cellular samples in a treatment exceeded 10% and no outliers were identified using the Grubb's test (see the worldwide web at graphpad.com/quickcalcs/Grubbs1.cfm), analysis was halted for that compound and the cell culture experiment was repeated. If outliers were present, the outlier sample was removed from analysis. If the CV for the DMSO control cell samples on a plate were outside of the quality control parameters, the entire plate was repeated. hES cell exposure to each of the 23 compounds was replicated a total of nine times.
as §1
Phase 2 Prediction of Developmental Toxicity Potential. […] FIG. 2 illustrates how the assay is applied in this situation. A test compound is considered to be teratogenic at the exposure level where the o/c ratio exceeds the teratogenicity threshold (red box, FIG. 2).

Rodent = settings: cited from earlier work; for Rodent in vivo test results: Embryotoxic: embryotoxic effect in the absence of teratogenic effects and maternal toxicity
Rabbit = settings: cited from earlier work
[3] = system: mouse embryonic stem cell; settings: cited from earlier work
rat whole embryo = settings: cited from earlier work
[4] = summarized from TERIS and Briggs et al. 2011, cited from earlier work; for Preclinical in vivo developmental effects: application set compounds
[5] = cited from earlier work
Humans = settings: cited from earlier work; for Humans (known human developmental toxicity): training and test set; for Known Effect: validation and test set treatments of Example 2
zebrafish = settings: training and test set; weak/moderate and strong teratogens both labeled teratogen; cited from earlier work
hES cells [6] = assay: devTOX computational model predictions (Version 2.0, Version 2.1) from hES cell metabolomics; type: cell-based, human; settings: single dose per treatment (Dose column)
Excerpt: The selection process weighted the predictive capacity of a feature, overall intensity, and peak shape to identify very well behaved features/metabolites that could be measured by targeted LC-MS or even by other detection systems.
(§2) This simplified model is based on a ratio of the reference treatment (DMSO) normalized values of ADMA and cystine.

hES cells [7] = assay: ADMA/cystine ratio simplified predictive model in hES cell spent media; type: cell-based, human; settings: single dose per treatment; ratios less than 0.9 indicate teratogenicity
Excerpt: as §2
The X-axis is the reference normalized ratio of ADMA/Cystine. The y-axis is the training set of pharmaceuticals. Grey color with triangle glyphs represents teratogens and black color with circle glyphs represents non-teratogens. Each glyph point represents the media value of an independent experimental block (6 reps per block). The crosshair glyphs mark the sample medians. In FIG. 9, grey vertical line is threshold of teratogenicity, grey horizontal lines are the median absolute deviations, and black vertical line designates 1.0. The arrows at the bottom indicate the values used for differentiation of teratogens and nonteratogens, utilizing a cut off of 0.9 (grey line).

[8] = application set, made using the therapeutic Cmax when available
[9] = test set, therapeutic peak plasma in vivo concentration, human
[10] = training and test set, weak/moderate and strong teratogens both labeled teratogen
[11] = training set, therapeutic peak plasma in vivo concentration, human
[12] = application set, peak plasma concentration in humans
[13] = test set, interpolated concentration where cell viability dose response curve crosses teratogenicity threshold 0.88, 72 hours
[14] = test set, teratogenicity potential scored against therapeutic Cmax

Compound | Rodent prediction (Rodent; application set) | Rabbit prediction (Rabbit; application set) | WEC prediction (rat whole embryo; application set) | Preclinical in vivo developmental effects [4] | O/C Ratio Prediction (WA09 hES cells [1]) | Targeted Biomarker Assay prediction (WA09 hES cells [1]) | Teratogenicity Potential (μM) O/C Ratio (WA09 hES cells [1]; human, 72 h) [µM] | Viability Prediction (WA09 hES cells [2]) | Teratogenicity Potential (μM) Cell Viability (WA09 hES cells [2]; human, 72 h) [µM] | Cmax [5, 9] [µM] | Humans (known human developmental toxicity) (Humans) | Rodent prediction (Rodent; training and test set) | ZET prediction (zebrafish) | WEC prediction (rat whole embryo; [10]) | Preclinical in vivo and known human developmental effects ([4]; test set compounds) | Rabbit prediction (Rabbit; training and test set) | mEST prediction [3, 10] | other results
NC(=O)c1ccc(N)nc1 [6-Aminonicotinamide] | TER | TER | TER^d | Craniofacial | – | – | – | – | – | – | – | – | – | – | – | – | – | Teratogenicity Potential (μM) O/C Ratio (WA09 hES cells [1]; application set, interpolated concentration where o/c ratio dose response curve crosses teratogenicity threshold 0.88, 72 hours): <0.04 µM; Targeted Biomarker Assay prediction (WA09 hES cells [1]; [8]): TER; Teratogenicity Potential (μM) Cell Viability (WA09 hES cells [2]; application set, interpolated concentration where cell viability dose response curve crosses teratogenicity threshold 0.88, 72 hours): 24.5 µM; Rodent in vivo test results: Teratogenic (Rodent; application set, structural malformations in the absence of maternal toxicity): +^d; mEST prediction ([3]; application set): TER^c
CC(=O)Nc1ccc(O)cc1 [Acetaminophen] | – | – | – | – | NON | NON | >300 | NON | >300 | 116 | NON | NON | NON^e | TER^k | None | – | – | –
CS(=O)(=O)OCCCCOS(C)(=O)=O [Busulfan] | – | – | – | – | TER | TER | 0.6 | TER | 3 | – | TER | TER | – | TER^j | – | TER | TER^i | Cytotoxicity at the Cmax exposure level (WA09 hES cells [2]; human, 72 h): greater than 30%; Model Predictions Version 2.0 (hES cells [6]): Ter; Model Predictions Version 2.1 (hES cells [6]): Ter; Model Predictions ADMA/Cystine (hES cells [7]): Ter; Cmax [5, 11]: 49.6 µM; Known Effect (Humans): Ter; Preclinical in vivo and known human developmental effects ([4]; training set compounds): Craniofacial, limb, embryo
CC(C)(S)[C@@H](N)C(=O)O [D-Penicillamine] | – | – | – | – | TER | TER | <0.04 | NON | >300 | 13.4 | TER | TER | NON^d | NON^f | Skeletal | – | NON^m | Classification by o/c ratio in the targeted biomarker assay (WA09 hES cells [1]): correctly classify
CNCCC(Oc1ccc(C(F)(F)F)cc1)c1ccccc1 (centres unmarked) [Fluoxetine] | TER | NON | NON^f,g | Embryo toxicity^c | – | NON | 25.1 | – | 23 | – | – | – | – | – | – | – | – | Cmax [5, 12]: 0.04 µM; Rodent in vivo test results: Embryotoxic (Rodent; application set): +; mEST prediction ([3]; application set): TER^e
CCOC(=O)N1CCC(=C2c3ccc(Cl)cc3CCc3cccnc32)CC1 [Loratadine] | – | – | – | – | – | – | – | – | – | – | – | NON | TER^d | NON^f,j | None | NON | NON^i | Targeted Biomarker Assay prediction (WA09 hES cells [1]; training and test set, o/c ratio scored against therapeutic Cmax): NON; Teratogenicity Potential (μM) Cell Viability (WA09 hES cells [2]; [13]): 76.3 µM; Viability Prediction (WA09 hES cells [2]; [14]): NON
CN(CCOc1ccc(CC2SC(=O)NC2=O)cc1)c1ccccn1 (centres unmarked) [Rosiglitazone] | TER | TER | NON^h | Embryo toxicity^c | – | – | 18.9 | – | 21.8 | – | – | – | – | – | – | – | – | Targeted Biomarker Assay prediction (WA09 hES cells [1]; [8]): NON; Cmax [5, 12]: 1.7 µM; Rodent in vivo test results: Embryotoxic (Rodent; application set): +
S=P(N1CC1)(N1CC1)N1CC1 [ThioTEPA] | – | – | – | – | TER | TER | 0.04 | – | – | 7 | TER | TER | TER^v | – | Skeletal, embryo toxicity^c | TER | – | Teratogenicity Potential (μM) Cell Viability (WA09 hES cells [2]; [13]): 0.5 µM; Viability Prediction (WA09 hES cells [2]; [14]): TER
Cytosine Arabinoside | – | – | – | – | – | – | – | – | – | – | – | TER | TER^n | TER^j | – | – | TER^i | Teratogenicity Potential (μM) O/C Ratio (WA09 hES cells [1]; training set, interpolated concentration where o/c ratio dose response curve crosses teratogenicity threshold 0.88, 72 hours): 0.04 µM; Teratogenicity Potential (μM) Cell Viability (WA09 hES cells [2]): 0.1 µM; Model Predictions Version 2.0 (hES cells [6]): Ter; Model Predictions Version 2.1 (hES cells [6]): Ter; Model Predictions ADMA/Cystine (hES cells [7]): Ter; Cmax [5, 11]: 0.6 µM; Known Effect (Humans): Ter; Preclinical in vivo and known human developmental effects ([4]; training set compounds): Limb
